Experimental data as given in ChEMBL document CHEMBL5257108, “Phthalazinone-based lactams and cyclic ureas as ROCK2 selective inhibitors” (Bioorg Med Chem Lett, 2023).

Experiments:
[1] = biological target: Rho-associated protein kinase 1 (Homo sapiens, UniProt Q13464); assay: Inhibition of ROCK1 (unknown origin)
[2] = biological target: Rho-associated protein kinase 2 (Homo sapiens, UniProt O75116); assay: Inhibition of ROCK2 (unknown origin)
Homo sapiens = species: Homo sapiens; assay: Selectivity ratio of IC50 for inhibition of ROCK2 (unknown origin) to IC50 for inhibition of ROCK1 (unknown origin)

Chain of Rho-associated protein kinase 1 (Q13464 whole entry): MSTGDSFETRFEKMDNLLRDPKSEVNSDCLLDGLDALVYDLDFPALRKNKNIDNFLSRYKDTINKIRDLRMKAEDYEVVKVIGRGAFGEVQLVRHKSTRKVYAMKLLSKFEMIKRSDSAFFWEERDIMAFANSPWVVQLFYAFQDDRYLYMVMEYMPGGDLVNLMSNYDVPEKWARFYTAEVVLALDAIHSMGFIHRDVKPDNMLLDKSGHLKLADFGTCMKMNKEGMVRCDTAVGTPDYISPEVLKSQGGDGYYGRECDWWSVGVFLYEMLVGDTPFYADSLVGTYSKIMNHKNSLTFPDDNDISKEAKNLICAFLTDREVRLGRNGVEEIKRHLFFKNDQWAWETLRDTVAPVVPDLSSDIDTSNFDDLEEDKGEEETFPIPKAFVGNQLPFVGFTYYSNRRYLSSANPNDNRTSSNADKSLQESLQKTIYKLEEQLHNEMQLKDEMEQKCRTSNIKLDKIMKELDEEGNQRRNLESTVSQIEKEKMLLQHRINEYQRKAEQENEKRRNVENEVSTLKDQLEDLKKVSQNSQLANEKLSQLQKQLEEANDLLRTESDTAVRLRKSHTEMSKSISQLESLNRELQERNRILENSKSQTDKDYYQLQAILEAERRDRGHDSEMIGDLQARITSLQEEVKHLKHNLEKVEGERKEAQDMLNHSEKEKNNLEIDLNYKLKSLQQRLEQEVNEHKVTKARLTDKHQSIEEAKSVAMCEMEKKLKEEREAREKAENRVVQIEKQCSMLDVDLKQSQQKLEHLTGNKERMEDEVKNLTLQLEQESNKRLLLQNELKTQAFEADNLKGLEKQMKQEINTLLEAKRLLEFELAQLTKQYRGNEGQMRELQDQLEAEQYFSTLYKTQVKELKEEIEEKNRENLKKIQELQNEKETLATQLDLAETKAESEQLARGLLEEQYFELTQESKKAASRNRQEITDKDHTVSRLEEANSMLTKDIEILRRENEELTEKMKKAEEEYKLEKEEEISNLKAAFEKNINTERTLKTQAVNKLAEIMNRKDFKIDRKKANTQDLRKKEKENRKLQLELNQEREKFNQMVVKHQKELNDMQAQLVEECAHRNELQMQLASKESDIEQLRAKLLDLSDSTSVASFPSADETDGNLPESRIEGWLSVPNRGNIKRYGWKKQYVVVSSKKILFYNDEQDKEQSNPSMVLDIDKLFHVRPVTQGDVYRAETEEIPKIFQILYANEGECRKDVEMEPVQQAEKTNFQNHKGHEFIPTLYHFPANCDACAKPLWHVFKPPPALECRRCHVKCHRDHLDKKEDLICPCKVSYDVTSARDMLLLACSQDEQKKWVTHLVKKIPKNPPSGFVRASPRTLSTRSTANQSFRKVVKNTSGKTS
Chain of Rho-associated protein kinase 2 (O75116 whole entry): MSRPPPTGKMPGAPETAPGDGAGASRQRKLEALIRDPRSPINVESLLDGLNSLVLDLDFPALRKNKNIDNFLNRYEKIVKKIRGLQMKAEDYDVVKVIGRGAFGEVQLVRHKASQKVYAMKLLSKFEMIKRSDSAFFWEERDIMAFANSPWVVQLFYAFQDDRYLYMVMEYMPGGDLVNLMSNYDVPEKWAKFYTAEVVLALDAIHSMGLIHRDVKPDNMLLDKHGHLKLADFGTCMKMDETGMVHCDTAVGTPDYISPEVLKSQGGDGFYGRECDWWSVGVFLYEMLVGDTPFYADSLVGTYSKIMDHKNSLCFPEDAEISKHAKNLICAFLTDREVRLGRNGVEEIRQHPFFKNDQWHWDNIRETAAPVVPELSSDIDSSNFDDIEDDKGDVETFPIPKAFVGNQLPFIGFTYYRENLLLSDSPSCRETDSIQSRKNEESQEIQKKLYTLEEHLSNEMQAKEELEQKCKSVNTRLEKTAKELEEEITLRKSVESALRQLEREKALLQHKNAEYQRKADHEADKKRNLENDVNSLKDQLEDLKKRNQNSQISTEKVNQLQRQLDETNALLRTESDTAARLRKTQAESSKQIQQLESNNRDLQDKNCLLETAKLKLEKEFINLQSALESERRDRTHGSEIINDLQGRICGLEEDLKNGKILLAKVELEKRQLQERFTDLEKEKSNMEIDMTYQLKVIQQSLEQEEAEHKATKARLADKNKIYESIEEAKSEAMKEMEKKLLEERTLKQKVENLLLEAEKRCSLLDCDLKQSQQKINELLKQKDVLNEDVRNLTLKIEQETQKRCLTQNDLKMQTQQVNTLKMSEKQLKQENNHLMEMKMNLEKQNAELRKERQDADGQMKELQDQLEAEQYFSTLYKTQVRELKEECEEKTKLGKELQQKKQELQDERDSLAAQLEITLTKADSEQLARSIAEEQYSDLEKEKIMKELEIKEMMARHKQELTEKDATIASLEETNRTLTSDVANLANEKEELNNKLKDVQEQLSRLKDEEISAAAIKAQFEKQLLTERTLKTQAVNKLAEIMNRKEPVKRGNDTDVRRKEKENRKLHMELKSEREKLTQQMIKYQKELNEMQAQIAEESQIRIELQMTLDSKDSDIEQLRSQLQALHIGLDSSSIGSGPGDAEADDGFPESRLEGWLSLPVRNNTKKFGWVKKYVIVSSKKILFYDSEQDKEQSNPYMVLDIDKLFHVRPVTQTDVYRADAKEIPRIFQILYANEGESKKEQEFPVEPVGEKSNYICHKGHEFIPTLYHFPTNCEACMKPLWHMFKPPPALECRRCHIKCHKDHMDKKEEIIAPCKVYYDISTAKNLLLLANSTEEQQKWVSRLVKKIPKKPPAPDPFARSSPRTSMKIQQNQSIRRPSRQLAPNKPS

Row | IC50 [1] | IC50 [2] | Ratio IC50 (Homo sapiens) | SMILES
1 | > 2000 nM | 350 nM | – | O=C1C(c2ccccc2)CCN1c1ccc(-c2n[nH]c(=O)c3ccccc23)cc1 (centres undefined)
2 | 1050 nM | 23 nM | – | COc1cccc(NC2CCN(c3ccc(-c4n[nH]c(=O)c5ccccc45)cc3)C2=O)c1 (centres undefined)
3 | > 2000 nM | 56 nM | – | O=C1N(Cc2ccccc2)CCN1c1ccc(-c2n[nH]c(=O)c3ccccc23)cc1
4 | 990 nM | 15 nM | – | O=C1C(Nc2cccc(OC(F)F)c2)CCN1c1ccc(-c2n[nH]c(=O)c3ccccc23)cc1 (stereo in doubt; 21)
5 | 200 nM | 2.5 nM | – | O=C1C(Nc2cccc(OC(F)F)c2)CCN1c1ccc(-c2n[nH]c(=O)c3ccccc23)cc1 (stereo in doubt; 22)
6 | 1520 nM | 490 nM | – | O=C1CC(c2ccccc2)CN1c1ccc(-c2n[nH]c(=O)c3ccccc23)cc1 (centres undefined)
7 | > 2000 nM | 370 nM | – | O=C1C(c2ccc(-c3n[nH]c(=O)c4ccccc34)cc2)CCN1c1ccccc1 (centres undefined)
8 | 340 nM | 7 nM | – | O=C(Cc1ccc(-c2n[nH]c(=O)c3ccccc23)cc1)N1CCc2ccccc21
9 | > 2000 nM | 1770 nM | – | O=C1C(NC2CCCC2)CCN1c1ccc(-c2n[nH]c(=O)c3ccccc23)cc1 (centres undefined)
10 | – | 1 nM | 20 | O=C(Nc1ccc(-c2n[nH]c(=O)c3ccccc23)cc1)N1CCc2ccccc21
11 | 200 nM | 19 nM | – | O=C1N(c2ccc(-c3n[nH]c(=O)c4ccccc34)cc2)CCN1c1cccnc1
12 | 240 nM | 5.2 nM | – | O=C1N(c2ccccc2)CCN1c1ccc(-c2n[nH]c(=O)c3ccccc23)cc1
13 | > 2000 nM | 1400 nM | – | O=C1C(NCc2ccccc2)CCN1c1ccc(-c2n[nH]c(=O)c3ccccc23)cc1 (centres undefined)
14 | > 2000 nM | 300 nM | – | O=c1[nH]nc(-c2ccc(-n3ncn(Cc4ccccc4)c3=O)cc2)c2ccccc12
15 | 270 nM | 5.6 nM | – | O=C1C(Nc2cccc(OC(F)(F)F)c2)CCN1c1ccc(-c2n[nH]c(=O)c3ccccc23)cc1 (centres undefined)
16 | 115 nM | 7.4 nM | – | Cc1nc2ccc(NC3CCN(c4ccc(-c5n[nH]c(=O)c6ccccc56)cc4)C3=O)cc2s1 (centres undefined)
17 | 950 nM | 34 nM | – | O=C1C(Nc2ccccc2)CCN1c1ccc(-c2n[nH]c(=O)c3ccccc23)cc1 (centres undefined)
18 | 430 nM | 16 nM | – | CS(=O)(=O)c1cccc(NC2CCN(c3ccc(-c4n[nH]c(=O)c5ccccc45)cc3)C2=O)c1 (centres undefined)
19 | 100 nM | 6.3 nM | – | O=C1C(Oc2cccc(OC(F)(F)F)c2)CCN1c1ccc(-c2n[nH]c(=O)c3ccccc23)cc1 (centres undefined)
20 | 380 nM | 18 nM | – | CC(C)Oc1cccc(NC2CCN(c3ccc(-c4n[nH]c(=O)c5ccccc45)cc3)C2=O)c1 (centres undefined)
21 | 230 nM | 60 nM | – | O=C1OC(c2ccccc2)CN1c1ccc(-c2n[nH]c(=O)c3ccccc23)cc1 (centres undefined)
22 | 330 nM | 2 nM | – | O=C1C(Nc2cccc(OC(F)F)c2)CCN1c1ccc(-c2n[nH]c(=O)c3ccccc23)cc1 (racemic)
